The text below walks through data of ChEMBL document CHEMBL5154721, “Discovery of HDAC6-Selective Inhibitor NN-390 with in Vitro Efficacy in Group 3 Medulloblastoma” (J Med Chem, 2022).

Assay [1] relates to MV4-11. Kind of assay: Induction of apoptosis in human MV4-11 cells assessed as late apoptotic cells at 2 uM after 18 hrs by Annexin V/PI staining based flow cytometric analysis. Type of assay: functional. In general terms: Flow cytometry measures light scatter and fluorescence of single cells or particles in a stream.
The target of assay [2] is T1, Protein deacetylase HDAC6 (Homo sapiens) (UniProt Q9UBN7).
T1 sequence (whole entry): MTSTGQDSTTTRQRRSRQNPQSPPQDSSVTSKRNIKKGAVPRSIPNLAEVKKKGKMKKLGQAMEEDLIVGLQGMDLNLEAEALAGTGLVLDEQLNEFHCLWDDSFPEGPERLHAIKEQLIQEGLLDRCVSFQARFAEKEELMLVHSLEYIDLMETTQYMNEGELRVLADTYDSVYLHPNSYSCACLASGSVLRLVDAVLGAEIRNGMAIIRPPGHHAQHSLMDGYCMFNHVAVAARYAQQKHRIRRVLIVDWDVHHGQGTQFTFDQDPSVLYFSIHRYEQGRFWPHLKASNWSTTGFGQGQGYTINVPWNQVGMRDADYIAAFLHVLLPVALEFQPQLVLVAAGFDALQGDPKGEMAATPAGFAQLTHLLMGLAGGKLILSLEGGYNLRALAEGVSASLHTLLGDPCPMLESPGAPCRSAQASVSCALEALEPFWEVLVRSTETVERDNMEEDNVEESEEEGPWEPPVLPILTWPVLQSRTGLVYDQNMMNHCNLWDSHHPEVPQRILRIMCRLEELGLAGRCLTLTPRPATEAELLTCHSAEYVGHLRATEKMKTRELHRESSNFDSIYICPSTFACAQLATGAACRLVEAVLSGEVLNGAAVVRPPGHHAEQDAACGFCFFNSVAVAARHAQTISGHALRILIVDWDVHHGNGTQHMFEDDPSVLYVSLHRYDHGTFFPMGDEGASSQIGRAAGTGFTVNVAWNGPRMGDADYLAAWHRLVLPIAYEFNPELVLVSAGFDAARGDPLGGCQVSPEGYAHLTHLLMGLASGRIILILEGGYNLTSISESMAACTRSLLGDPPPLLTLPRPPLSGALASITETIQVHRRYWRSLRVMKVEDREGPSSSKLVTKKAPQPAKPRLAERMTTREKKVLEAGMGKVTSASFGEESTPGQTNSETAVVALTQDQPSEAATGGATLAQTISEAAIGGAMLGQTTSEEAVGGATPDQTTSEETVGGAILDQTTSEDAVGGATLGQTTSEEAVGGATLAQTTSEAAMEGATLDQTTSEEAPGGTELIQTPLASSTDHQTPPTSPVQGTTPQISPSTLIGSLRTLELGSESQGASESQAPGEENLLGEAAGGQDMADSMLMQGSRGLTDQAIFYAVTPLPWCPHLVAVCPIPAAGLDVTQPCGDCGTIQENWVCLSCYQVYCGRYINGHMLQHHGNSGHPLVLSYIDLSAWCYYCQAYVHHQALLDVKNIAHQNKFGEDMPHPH
Put plainly: Inhibition of full length human recombinant HDAC6 in human MV4-11 cells assessed as increase in acetylation of histone H3 for 6 hrs by immunofluorescence imaging method. Type of assay: cell-based. Particulars: dose 0.1-2 µM, DDE = dose-dependent effect.

The subject of assay [3] is MV4-11. Put plainly: Induction of apoptosis in human MV4-11 cells assessed as viable cells at 0.75 uM after 24 hrs by Annexin V/PI staining based flow cytometric analysis (Rvb=58.28%). Type of assay: functional. Particulars: read-out: Activity.
Assay [4] addresses T2, Polyamine deacetylase HDAC10 (Homo sapiens, UniProt Q969S8).
T2 sequence (Q969S8 whole entry): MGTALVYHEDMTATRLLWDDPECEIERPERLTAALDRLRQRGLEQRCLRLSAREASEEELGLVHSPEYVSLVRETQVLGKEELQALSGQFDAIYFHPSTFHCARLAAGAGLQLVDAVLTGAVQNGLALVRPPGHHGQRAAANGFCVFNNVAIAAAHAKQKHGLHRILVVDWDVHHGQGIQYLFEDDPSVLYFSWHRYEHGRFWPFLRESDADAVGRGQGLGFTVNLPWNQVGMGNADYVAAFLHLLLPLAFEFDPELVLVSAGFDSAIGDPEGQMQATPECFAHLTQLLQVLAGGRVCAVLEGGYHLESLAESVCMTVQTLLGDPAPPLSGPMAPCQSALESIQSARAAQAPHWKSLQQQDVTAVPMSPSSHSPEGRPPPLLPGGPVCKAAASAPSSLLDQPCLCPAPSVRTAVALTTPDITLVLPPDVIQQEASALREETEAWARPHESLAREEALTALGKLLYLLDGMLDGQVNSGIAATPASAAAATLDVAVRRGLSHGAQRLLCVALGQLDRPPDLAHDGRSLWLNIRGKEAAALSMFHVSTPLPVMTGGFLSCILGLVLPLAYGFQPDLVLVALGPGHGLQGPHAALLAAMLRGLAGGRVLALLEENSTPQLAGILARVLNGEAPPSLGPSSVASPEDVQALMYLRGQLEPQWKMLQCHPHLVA
Put plainly: Inhibition of full length human recombinant HDAC10 expressed in Sf9 baculovirus system using FAM-labeled acetylated peptide as substrate by measuring fluorescence intensity.

In the case of `CC(C)N(Cc1ccc(C(=O)NO)cc1)S(=O)(=O)c1cc(F)c(F)c(F)c1F`, the Activity in assay [1] is 39%. The inhibition result in assay [2] is “Dde”. The viability at 0.75 µM in assay [3] was 85.7%. For the same compound, in assay [4], the half-inhibitory concentration (IC50) (as a rule, the concentration needed to halve the response being measured) is over 5 µM.
